Results as given in PMC3402085 (ACS medicinal chemistry letters, 2012).

Tests used:
[1] = system: PC-12 cells expressing mutant G93A SOD1; assay: Mutant SOD1-induced cytotoxicity protection assay; type: cell-based; conditions: result in words
primary cortical neurons = assay: Primary cortical neuron protection assay; type: cell-based; conditions: result in words
[2] = system: PC-12 cells expressing mutant G93A SOD1; conditions: result in words; previously prepared compound; cited from earlier work

Compound | protection against mutant SOD1 induced toxicity in PC-12 cells [1] | activity in cortical neurons (primary cortical neurons) | inhibition of protein aggregation in PC-12 cells expressing mutant G93A SOD1 [2]
C[C@H](Oc1cc(C(F)(F)F)cc(C(F)(F)F)c1)C1CC(=O)CC(=O)C1 [1b] | protective | active | 
O=C1CC(=O)CC([C@@H]2C[C@H]2c2cc(C(F)(F)F)cc(C(F)(F)F)c2)C1 [2b] | protective | active | 
O=C1CC(=O)CC(c2cc(C(F)(F)F)cc(C(F)(F)F)c2)C1 [compound 13] |  |  | potent inhibitor
